The conditions of the data set: for Stabilized Chlorine Dioxide Concentration: ingredient added to proprietary brimonidine composition; for Stabilization of chlorine dioxide by the excipient (in words): proprietary brimonidine composition.

The structures appear in SMILES notation. Where two headings read alike, the source gives them in different places.

Procedure: Each of the excipients was added, in the amounts shown, to a proprietary composition comprising brimonidine as a therapeutically active agent.

With `O=C(O)CN(CCN(CC(=O)O)CC(=O)O)CC(=O)O` [EDTA], the “Stabilization of chlorine dioxide by the excipient (in words)” value (shortened to “Stabilization of chlorine dioxide”) is recorded as “do not stabilize”. Besides, the “Stabilized Chlorine Dioxide Concentration” value (0 Days) stood at 44 ppm. For the same compound, the “Stabilized Chlorine Dioxide Concentration” value (7 Days) amounted to 2 ppm. Besides, the “Stabilized Chlorine Dioxide Concentration” value (14 Days) was 0 ppm.

Take `NCCN` [Ethylene diamine]: the “Stabilization of chlorine dioxide” value is recorded as “do not stabilize”.

On to `O=C([O-])/C(O)=C(\O)C(=O)[O-].[Na+].[Na+]` [Sodium Dihydroxyfurmarate], for which the “Stabilized Chlorine Dioxide Concentration” value stood at 37 ppm (0 Days), 13 ppm (7 Days) and 0 ppm (14 Days).

On to `O=C[O-].[Na+]` [Sodium Formate], for which the “Stabilized Chlorine Dioxide Concentration” value (0 Days) was found to be 42 ppm, the “Stabilized Chlorine Dioxide Concentration” value (7 Days) stood at 40 ppm and the “Stabilized Chlorine Dioxide Concentration” value (14 Days) is 36 ppm.

For `CC(O)C(=O)[O-].[Na+]` (stereo not shown) [Sodium Lactate], the “Stabilized Chlorine Dioxide Concentration” value (0 Days) is 45 ppm, the “Stabilized Chlorine Dioxide Concentration” value (7 Days) is recorded as 40 ppm and the “Stabilized Chlorine Dioxide Concentration” value (14 Days) is recorded as 37 ppm.

Turning to `O=C([O-])C(=O)[O-].[Na+].[Na+]` [Sodium Oxalate], the “Stabilization of chlorine dioxide” value was “similarly ineffective”. Moreover, the “Stabilized Chlorine Dioxide Concentration” value (0 Days) came to 39 ppm. The “Stabilized Chlorine Dioxide Concentration” value (7 Days) was 38 ppm. Besides, the “Stabilized Chlorine Dioxide Concentration” value (14 Days) is on record as 35 ppm.

With `CC(=O)C(=O)[O-].[Na+]` [Sodium Pyruvate], the “Stabilization of chlorine dioxide” value was “similarly ineffective”.
